Patent publication US20230062100A1, “SUBSTITUTED AMINOQUINOLONES AS DGKALPHA INHIBITORS FOR IMMUNE ACTIVATION” (Bayer Aktiengesellschaft, priority 2019, published 2023)

Each compound was assayed against DGKα (Homo sapiens, UniProt P23743) (assay: Human DGKα kinase activity inhibition assay (ADP-Glo)). Conditions: in vitro human DGKα kinase activity inhibition assay.
DGKα, sequence (P23743 with tags, fused parts or gaps): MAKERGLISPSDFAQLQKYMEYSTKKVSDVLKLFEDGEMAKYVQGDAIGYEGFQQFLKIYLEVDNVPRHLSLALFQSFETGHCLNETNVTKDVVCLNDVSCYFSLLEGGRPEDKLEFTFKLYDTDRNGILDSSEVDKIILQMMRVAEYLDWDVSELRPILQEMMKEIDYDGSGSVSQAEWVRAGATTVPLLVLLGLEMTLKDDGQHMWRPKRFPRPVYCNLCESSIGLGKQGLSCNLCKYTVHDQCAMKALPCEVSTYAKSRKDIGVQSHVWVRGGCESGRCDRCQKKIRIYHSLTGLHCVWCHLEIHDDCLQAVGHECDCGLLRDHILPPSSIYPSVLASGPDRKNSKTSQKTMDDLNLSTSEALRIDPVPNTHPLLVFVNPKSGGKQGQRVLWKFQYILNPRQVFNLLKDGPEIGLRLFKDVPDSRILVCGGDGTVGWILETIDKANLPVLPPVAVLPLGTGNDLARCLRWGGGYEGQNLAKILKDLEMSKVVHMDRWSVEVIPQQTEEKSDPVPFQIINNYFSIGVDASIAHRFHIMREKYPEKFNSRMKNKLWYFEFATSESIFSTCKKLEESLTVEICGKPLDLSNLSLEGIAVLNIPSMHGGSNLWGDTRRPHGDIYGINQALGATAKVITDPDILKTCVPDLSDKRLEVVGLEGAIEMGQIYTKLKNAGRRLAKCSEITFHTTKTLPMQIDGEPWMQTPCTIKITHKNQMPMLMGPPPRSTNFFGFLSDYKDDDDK
Assay type: biochemical
Description: Human DGKα inhibitory activity of compounds of the present invention was quantified employing the human DGKα kinase activity assay as described in the following paragraphs. In essence, the enzyme activity was measured by quantification of the adenosine-di-phosphate (ADP) generated as a co-product of the enzyme reaction via the “ADP-Glo™ Kinase Assay” kit from the company Promega. This detection system works as follows: In a first step the ATP not consumed in the kinase reaction is quantitatively converted to cAMP employing an adenylate cyclase (“ADP-Glo-reagent”), then the adenylate cyclase is stopped and the ADP generated in the kinase reaction converted to ATP, which subsequently generates in a luciferase-based reaction a glow-luminescence signal (“Kinase Detection Reagent”). C-terminally FLAG-tagged, recombinant full-length human DGKα (expressed in baculovirus infected insect cells, purified using anti-Flag pulldown and size exclusion chromatography as described below, DGKα_hu_1) was used as enzyme. As substrate for the kinase 1,2-dioleoyl-sn-glycerol, reconstituted in octyl-β-D-glucopyranoside micelles, was used. For the preparation of the micelles, 1 volume of a 16.1 mM solution of 1,2-dioleoyl-sn-glycerol (Avanti, Cat. #O8001-25G) in chloroform was slowly evaporated using a nitrogen stream. Subsequently, 22.55 volumes of a 510 mM solution of octyl-β-D-glucopyranoside (Sigma-Aldrich, Cat. #O8001-10G) in 50 mM MOPS buffer (pH 7.4) were added, and the mixture was sonicated in an ultrasonic bath for 20 s. Then 35 volumes of 50 mM MOPS buffer (pH 7.4) were added to yield a solution of 0.28 mM 1,2 dioleoyl-sn-glycerol and 200 mM octyl-β-D-glucopyranoside, which was aliquoted, flash-frozen in liquid nitrogen, and stored at −20° C. until use. For each experiment, a fresh aliquot was quickly thawed and diluted 24-fold with aqueous assay buffer (described below) containing 95.7 μM adenosine triphosphate (Promega) to yield a 1.67-fold concentrated substrate solution. For the assay 50 nl of a 100-fold concentrated solution of the test compound in dimethyl sulfoxide (DMSO, Sigma) was pipetted into either a white 1536-well or a white low-volume 384-well microtiter plate (both Greiner Bio-One, Frickenhausen, Germany). […] The concentration of DGK a was adjusted depending of the activity of the enzyme lot and was chosen appropriate to have the assay in the linear range, a typical concentration is about 0.1 nM. The reaction was stopped by the addition of 2.5 μl of “ADP-Glo-reagent” (1 to 1.5 diluted with water) and the resulting mixture was incubated at 22° C. for 1 h to convert the ATP not consumed in the kinase reaction completely to cAMP. […] The amount of emitted light was taken as a measure for the amount of ADP generated and thereby for the activity of the DGKα.
`Cn1c(=O)c(C#N)c(N2CCC(Oc3ccc(OC(F)(F)F)cc3)CC2)c2cccc(F)c21` [Example 129, 8-fluoro-1-methyl-2-oxo-4-{4-[4-(trifluoromethoxy)phenoxy]piperidin-1-yl}-1,2-dihydroquinoline-3-carbonitrile] was tested, and the IC50 was 29 nM. In the case of `Cn1c(=O)c(C(N)=O)c(N2CCC(Oc3ccc(Cl)cc3)CC2)c2ccc(N3CCCC3=O)cc21` [Example 97, 4-[4-(4-chlorophenoxy)piperidin-1-yl]-1-methyl-2-oxo-7-(2-oxopyrrolidin-1-yl)-1,2-dihydroquinoline-3-carboxamide], the IC50 is reported as 122 nM. Work on `CC(C)Oc1ccc(OC2CCN(c3c(C#N)c(=O)n(C)c4ccccc34)CC2)cc1` [Example 47, 1-methyl-2-oxo-4-(4-{4-[(propan-2-yl)oxy]phenoxy}piperidin-1-yl)-1,2-dihydroquinoline-3-carbonitrile] yielded an IC50 of 8.6 nM. For `Cn1c(=O)c(C#N)c(N2CCC(Oc3ccc(C(F)(F)F)cc3)CC2)c2ccc(C3CC3)cc21` [Example 87, 7-cyclopropyl-1-methyl-2-oxo-4-{4-[4-(trifluoromethyl)phenoxy]piperidin-1-yl}-1,2-dihydroquinoline-3-carbonitrile], the IC50 was 40 nM. In the case of `Cc1ccc2c(c1)c(N1CCC(Oc3ccccc3Cl)CC1)c(C#N)c(=O)n2C` [Example 151, 4-[4-(2-chlorophenoxy)piperidin-1-yl]-1,6-dimethyl-2-oxo-1,2-dihydroquinoline-3-carbonitrile], the IC50 is reported as 60 nM. `Cc1ccc2c(c1)c(N1CCC(Oc3ccc(OC(F)(F)F)cc3)CC1)c(C#N)c(=O)n2C` [Example 143, 1,6-dimethyl-2-oxo-4-{4-[4-(trifluoromethoxy)phenoxy]piperidin-1-yl}-1,2-dihydroquinoline-3-carbonitrile] was tested, and the IC50 was 4.7 nM. With `Cn1c(=O)c(C#N)c(N2CCC(Oc3ccc(Cl)cc3)CC2)c2ccc(Br)cc21` [Example 57, 7-bromo-4-[4-(4-chlorophenoxy)piperidin-1-yl]-1-methyl-2-oxo-1,2-dihydroquinoline-3-carbonitrile] the IC50 was 17 nM. For `COc1ccccc1OC1CCN(c2c(C#N)c(=O)n(C)c3ccccc23)CC1` [Example 11, 4-[4-(2-methoxyphenoxy)piperidin-1-yl]-1-methyl-2-oxo-1,2-dihydroquinoline-3-carbonitrile], the IC50 was 11 nM. Compound `Cn1c(=O)c(C#N)c(N2CCC(Oc3ccc(C(F)(F)F)cc3)CC2)c2ccccc21` [Example 13, 1-methyl-2-oxo-4-{4-[4-(trifluoromethyl)phenoxy]piperidin-1-yl}-1,2-dihydroquinoline-3-carbonitrile] has an IC50 of 14 nM. Work on `Cn1c(=O)c(C#N)c(N2CCC(Cc3ccc(F)cc3)CC2)c2ccccc21` [Example 92, 4-{4-[(4-fluorophenyl)methyl]piperidin-1-yl}-1-methyl-2-oxo-1,2-dihydroquinoline-3-carbonitrile] yielded an IC50 of 6.2 nM. `Cn1c(=O)c(C#N)c(N2CCC(Oc3cccc(OC(F)(F)F)c3)CC2)c2ccc(C3COC3)cc21` [Example 77, 1-methyl-7-(oxetan-3-yl)-2-oxo-4-{4-[3-(trifluoromethoxy)phenoxy]piperidin-1-yl}-1,2-dihydroquinoline-3-carbonitrile] was tested, and the IC50 was 17 nM. `Cn1c(=O)c(C#N)c(N2CCC(Oc3ccccc3F)CC2)c2ccccc21` [Example 33, 4-[4-(2-fluorophenoxy)piperidin-1-yl]-1-methyl-2-oxo-1,2-dihydroquinoline-3-carbonitrile] gave an IC50 of 13 nM. Compound `COc1cc(C)ccc1OC1CCN(c2c(C#N)c(=O)n(C)c3ccc(C)cc23)CC1` [Example 153, 4-[4-(2-methoxy-4-methylphenoxy)piperidin-1-yl]-1,6-dimethyl-2-oxo-1,2-dihydroquinoline-3-carbonitrile] has an IC50 of 10 nM. In the case of `COc1ccc2c(N3CCC(Oc4ccc(C(F)(F)F)cc4)CC3)c(C#N)c(=O)n(C)c2c1` [Example 66, 7-methoxy-1-methyl-2-oxo-4-{4-[4-(trifluoromethyl)phenoxy]piperidin-1-yl}-1,2-dihydroquinoline-3-carbonitrile], the IC50 is reported as 14 nM. For `Cn1c(=O)c(C(N)=O)c(N2CCC(Oc3ccc(Cl)cc3)CC2)c2ccccc21` [Example 50, 4-[4-(4-chlorophenoxy)piperidin-1-yl]-1-methyl-2-oxo-1,2-dihydroquinoline-3-carboxamide], the IC50 was 3.1 nM. With `Cc1cccc(OC2CCN(c3c(C#N)c(=O)n(C)c4ccccc34)CC2)c1` [Example 3, 1-methyl-4-[4-(3-methylphenoxy)piperidin-1-yl]-2-oxo-1,2-dihydroquinoline-3-carbonitrile] the IC50 was 6.2 nM. Compound `Cn1c(=O)c(C#N)c(N2CCC(Oc3cccc(Cl)c3)CC2)c2ccccc21` [Example 9, 4-[4-(3-chlorophenoxy)piperidin-1-yl]-1-methyl-2-oxo-1,2-dihydroquinoline-3-carbonitrile] has an IC50 of 9.1 nM. `Cn1c(=O)c(C#N)c(N2CCC(Oc3ccc(OC(F)(F)F)cc3)CC2)c2ccc(Cl)cc21` [Example 64, 7-chloro-1-methyl-2-oxo-4-{4-[4-(trifluoromethoxy)phenoxy]piperidin-1-yl}-1,2-dihydroquinoline-3-carbonitrile] showed an IC50 of 16 nM. `Cn1c(=O)c(C#N)c(N2CCCC(Oc3ccc(OC(F)(F)F)cc3)CC2)c2ccccc21` (racemic) [Example 100, (rac)-1-methyl-2-oxo-4-{4-[4-(trifluoromethoxy)phenoxy]azepan-1-yl}-1,2-dihydroquinoline-3-carbonitrile] was tested, and the IC50 was 8.3 nM. Compound `Cn1c(=O)c(C#N)c(N2CCC(Oc3ccc(F)cc3)CC2)c2ccc(N3CCCC3=O)cc21` [Example 84, 4-[4-(4-fluorophenoxy)piperidin-1-yl]-1-methyl-2-oxo-7-(2-oxopyrrolidin-1-yl)-1,2-dihydroquinoline-3-carbonitrile] has an IC50 of 25 nM. `Cn1c(=O)c(C#N)c(N2CCC(Oc3ccc(F)cc3)CC2)c2cc(Br)ccc21` [Example 137, 6-bromo-4-[4-(4-fluorophenoxy)piperidin-1-yl]-1-methyl-2-oxo-1,2-dihydroquinoline-3-carbonitrile] showed an IC50 of 1.9 nM. In the case of `Cc1cccc(OC2CCN(c3c(C#N)c(=O)n(C)c4ccc(C)cc34)CC2)c1` [Example 149, 1,6-dimethyl-4-[4-(3-methylphenoxy)piperidin-1-yl]-2-oxo-1,2-dihydroquinoline-3-carbonitrile], the IC50 is reported as 7.7 nM. In the case of `Cn1c(=O)c(C#N)c(N2CCC(Oc3cccc(OC(F)(F)F)c3)CC2)c2ccccc21` [Example 38, 1-methyl-2-oxo-4-{4-[3-(trifluoromethoxy)phenoxy]piperidin-1-yl}-1,2-dihydroquinoline-3-carbonitrile], the IC50 is reported as 18 nM. `Cn1c(=O)c(C#N)c(N2CCC(Oc3ccc(S(C)(=O)=O)cc3)CC2)c2ccccc21` [Example 43, 4-{4-[4-(methanesulfonyl)phenoxy]piperidin-1-yl}-1-methyl-2-oxo-1,2-dihydroquinoline-3-carbonitrile] showed an IC50 of 339 nM. Work on `COc1cccc(COC2CCN(c3c(C(N)=O)c(=O)n(C)c4ccccc34)CC2)c1` [Example 125, 4-{4-[(3-methoxyphenyl)methoxy]piperidin-1-yl}-1-methyl-2-oxo-1,2-dihydroquinoline-3-carboxamide] yielded an IC50 of 43 nM. In the case of `Cn1c(=O)c(C(N)=O)c(N2CCC(OCc3ccccc3)CC2)c2ccccc21` [Example 121, 4-[4-(benzyloxy)piperidin-1-yl]-1-methyl-2-oxo-1,2-dihydroquinoline-3-carboxamide], the IC50 is reported as 16 nM. In the case of `COc1cc(C)ccc1OC1CCN(c2c(C#N)c(=O)n(C)c3ccccc23)CC1` [Example 31, 4-[4-(2-methoxy-4-methylphenoxy)piperidin-1-yl]-1-methyl-2-oxo-1,2-dihydroquinoline-3-carbonitrile], the IC50 is reported as 6.8 nM. `Cc1cc(Br)c2c(c1)c(N1CCC(Oc3cccc(Cl)c3)CC1)c(C#N)c(=O)n2C` [Example 169, 8-bromo-4-[4-(3-chlorophenoxy)piperidin-1-yl]-1,6-dimethyl-2-oxo-1,2-dihydroquinoline-3-carbonitrile] gave an IC50 of 2530 nM. With `COCCc1ccc2c(N3CCC(Oc4ccc(Cl)cc4)CC3)c(C#N)c(=O)n(C)c2c1` [Example 75, 4-[4-(4-chlorophenoxy)piperidin-1-yl]-7-(2-methoxyethyl)-1-methyl-2-oxo-1,2-dihydroquinoline-3-carbonitrile] the IC50 was 3.7 nM. `COc1ccccc1COC1CCN(c2c(C#N)c(=O)n(C)c3ccccc23)CC1` [Example 117, 4-{4-[(2-methoxyphenyl)methoxy]piperidin-1-yl}-1-methyl-2-oxo-1,2-dihydroquinoline-3-carbonitrile] showed an IC50 of 6 nM.
